# Reference: patent publication US4072675A, “N-phenyl amidines” (Mead Johnson & Company, priority 1975, dated 1978)
# Counter-ions that a name gives are not always drawn. Like-named read-outs stand apart in the source and are kept apart here.
# Tests used:
# [1] = Diuretic test in rats according to the Lipschitz method (urine volume and electrolyte excretion vs urea control); assay type: in vivo; conditions: rat
# Experimental: The compounds of the present invention are evaluated as diuretics according to the method of W. L. Lipschitz, et al., J. Pharmacol. Expt. Therap., 79, 97 (1943). In this method, groups of 8 rats are fasted 18 hours prior to the experiment. A control group is hydrated orally with 25 ml. per kilogram of body weight of isotonic saline solution which is also the vehicle used for dosing the test compound. One control group received a dose of 960 mg./kg. of body weight of urea. Animals of other groups are tested with various doses of the test compound. Immediately after treatment, the animals are placed in metabolism cages (two rats of the same group per cage) and maintained without food or water for 5 hours. The volume of urine excreted by each pair is determined after this period and the pooled urine is analyzed for sodium, potassium, and chloride ions. […] In this test, the N-phenyl amidines of Formula I were orally administered in doses ranging from 2.7 to 25 mg./kg. of body weight.
# One of the disadvantages associated with diuretics such as the thiazides is believed to stem largely from increased excretion of potassium ion concomitant with water elimination. […] As stated hereinabove,excessive excretion of potassium ion may cause an electrolyte imbalance resulting in adverse side effects.
# [2] = tested on: aconitine induced atrial arrhythmia; experiment: In vivo dog arrhythmia test (aconitine induced atrial arrhythmia); conditions: Canis lupus familiaris, iv, read-out: effective dose restoring normal cardiac rhythm
# Source text: In the in vivo dog arrhythmia test, the chest of an anesthetized dog is opened in the mid-line and the right and left atrial appendages exposed to small slits in the pericardium. Bypolar recording electrodes are affixed to atrial surfaces and a 4 × 4 mm. piece of clean cloth is fixed to surface of the right auricular appendage. Control recordings are made of various heart functions including femoral arterial blood pressure and right and left atrail electrograms. Atrial arrhythmia is then induced by placing 3-5 drops of a solution of aconitine on the cloth which is fixed to the right atrium. An irregular, rapid atrial rate is produced within 1 minute. Throughout the test, fresh aconitine (2-3 drops) is placed on the cloth at 10 minute intervals. The test compound is administered intravenously 5 minutes after the initial establishment of the arrhythmia and infusion continued at a slow rate until an effective dose which re-establishes normal rhythm of the heart is obtained.
# The Formula Ia N-phenylamidines are effective both orally and parenterally as antiarrhythmic agents. For instance, intravenous administration of about 2.5 mg./kg. of 3,4,5,6-tetrahydro-7-[(N-phenyl)-phenethylamino]-2H-azepine or 4,5,6,7,8,9-hexahydro-2-(N-phenylphenethyl-amino)-3H-azonine effectively restores normal cardiac rhythm to induced arrhythmia in the dog.
# [3] = tested on: chloroform induced arrhythmia; experiment: Chloroform induced arrhythmia in the mouse; assay type: in vivo; conditions: ip, intraperitoneal, read-out: ED50 preventing chloroform induced arrhythmia
# Source text: Another in vivo test indicative of antiarrhythmic activity is chloroform induced arrhythmia in the mouse.
# rabbit ileum = experiment: In vitro smooth muscle relaxant test, isolated rabbit ileum with spasmogen; assay type: cell-based; conditions: from EC50 vs spasmogen, papaverine = reference
# Experimental: Smooth muscle relaxant activity of the compounds of the present invention can be measured in standard in vitro and in vivo pharmacological tests. One such in vitro test is carried out essentially as follows. A segment of rabbit ileum is suspended and oxygenated in Tyrode's solution and affixed to a tension transducer for electronic recording of isometric contractions. After controlled responses to a standard dose of a spasmogen such as barium chloride (0.25 mg./ml.), acetyl choline chloride (1.0 mcg./ml.), etc., are established, the test compound is added and the response to the spasmogen, in the presence of the test agent, again determined. Test compound effect is measured as the percentage reduction in the response to the spasmogen, in the presence of the test compound, from the mean control response. A minimum of four trials is obtained with each of two to five different concentrations of the test compound. The data are expressed in log dose response curves and estimates made therefrom of the EC50 (concentration causing 50% reduction in response of the tissue to the spasmogen). In general, the effect of compounds identified by Formula I on the rabbit ileum is similar to papaverine, a well-known smooth muscle relaxant. […]
# rabbit atrium = experiment: Isolated rabbit atrium test (refractory period); assay type: cell-based; conditions: Oryctolagus cuniculus, read-out: EC50 (50% of maximal increase in refractory period)
# Experimental: In the rabbit atrium test, the left atrium is placed in Chenoweth's solution warmed to 30° C. and irrigated with 95% oxygen:5% carbon dioxide. The lower end of the atrium is attached to a small hook fixed in the bath and the upper end is connected to a transducer to record contractile activity. The atrium is electrically stimulated at a basic rate of 30 per minute employing square wave pulses of 10 millisecond duration at 1.2-1.5 times threshold voltage. The test compound is introduced into the bath and the test repeated after a 5 minute interval. A dose response relationship is obtained by additional doses of the test compound. Potency of a test agent can be expressed as the effective concentration which produces 50% of the maximal increase in the measured refractory period of the steady state atrium. This value is designated the EC50.
# [4] = tested on: guinea pig isolated tracheal spiral; experiment: In vitro guinea pig isolated tracheal spiral test; assay type: cell-based
# Experimental: Another in vitro test measuring the smooth muscle relaxant properties of the compounds of the present invention employs the guinea pig isolated tracheal spiral and is carried out essentially as described by Lish, et al., J. Pharmacol. Exp. Therap., 129, 191 (1960). As illustrative of the activity of the compounds of the present invention in this test there can be mentioned 3-[(N-1-pyrrolin-2-yl-p-anisidino)methyl]indole hydrochloride which is about 1.7 times as potent as aminophylline.
# [5] = tested on: histamine challenged guinea pig; experiment: Histamine challenged guinea pig aerosol test (bronchodilation); assay type: in vivo; conditions: oral
# Source text: As a bronchodilating agent, 3-[(N-1-pyrrolin-2-yl-p-anisidino)methyl]indolehydrochloride is of particular interest. In the histamine challenged guinea pig aerosol test, refer to Turner, Screening Methods In Pharmacology, page 214 (1965) (Academic Press, New York), this compound is about 1.4 times as potent as aminophylline when administered orally.
# intestinal smooth muscle = experiment: In vivo intestinal smooth muscle relaxation in anesthetized cat (intraduodenal pressure)
# Experimental: Intestinal smooth muscle relaxant activity can also be measured in an in vivo cat preparation. In this test, a balloon is inserted through a small incision in the stomach of an anesthetized cat to a point about 10 cm. down the duodenum and intralumenal intestinal pressure changes recorded. A solution or suspension of the test agent is administered intraduodenally about 2 cm. beyond the balloon placed for recording intraduodenal pressure in volume doses of 1 ml./kg. body weight. This means of administration mimics oral administration. Various doses of the test agent are administered and an inhibitory dose which supresses intestinal […] by 50% of maximum is determined. This value is designated the ID50. N-benzyl-N'-tert-butyl-N-phenylforamidine hydrochloride compared to papaverine is about 1.5 times as potent in this test.
# [6] = rabbit left atrium, 30° C., Chenoweth's solution
compound,measurement,setting,value
"CC1CCC(N(Cc2ccccc2)c2ccccc2)=N1.Cl (stereo not shown) [Example 5, 5-Methyl-2-(N-phenylbenzylamino)-1-pyrroline hydrochloride]",ratio of sodium ion excretion to potassium ion excretion,"[1]; oral, 6.25 mg./kg.",2.7
same,ratio for potassium ion excretion vs urea control group,"[1]; oral, 6.25 mg./kg., 5 hours",0.75
same,ratio for sodium ion excretion vs urea control group,"[1]; oral, 6.25 mg./kg., 5 hours",2.03
same,ratio for volume excretion vs urea control group,"[1]; oral, 6.25 mg./kg., 5 hours",2.32
"NS(=O)(=O)c1cc2c(cc1Cl)NCNS2(=O)=O [Hydrochlorothiazide, reference compound]",ratio of sodium ion excretion to potassium ion excretion,"[1]; oral, 6.25 mg./kg.",1.65
"c1ccc(CCN(C2=NCCCCC2)c2ccccc2)cc1 [3,4,5,6-tetrahydro-7-[(N-phenyl)phenethylamino]-2H-azepine]",minimal effective dose,[2],~2.5 mg/kg
same,ED50,[3],11.5 mg/kg
"CC1CCC(N(Cc2c[nH]c3ccccc23)c2ccccc2)=N1.Cl (stereo not shown) [Example 37, 3-[[N-(5-methyl-1-pyrrolin-2yl)anilino]methyl]indole hydrochloride]",smooth muscle relaxant potency relative to papaverine (times as potent),rabbit ileum,1.4
"c1ccc(CCN(C2=NCCCCCC2)c2ccccc2)cc1 [Example 60, 3,4,5,6,7,8-Hexahydro-2-(N-phenylphenethylamino)azocine hydrochloride hemihydrate]",EC50,rabbit atrium; [6],2.5 µg/mL
"C=C[C@H]1C[N@@]2CC[C@H]1C[C@@H]2[C@@H](O)c1ccnc2ccc(OC)cc12 [Quinidine, reference compound]",minimal effective dose,[2],6 mg/kg
same,EC50,rabbit atrium,18 µg/mL
"COc1ccc(N(Cc2c[nH]c3ccccc23)C2=NCCC2)cc1 [Example 34, 3-[N-1-Pyrrolin-2-yl-p-anisidino)methyl]indole hydrochloride]",potency relative to aminophylline (times as potent),[4],about 1.7
same,bronchodilating potency relative to aminophylline (times as potent),[5],about 1.4
"c1ccc(CCN(C2=NCCCCCCC2)c2ccccc2)cc1 [4,5,6,7,8,9-hexahydro-2-(N-phenylphenethylamino)-3H-azonine]",minimal effective dose,[2],~2.5 mg/kg
"CC(C)(C)N=CN(CCc1ccccc1)c1ccccc1.Cl [Example 1, N'-tert-Butyl-N-phenethyl-N-phenylformamidine hydrochloride]",smooth muscle relaxant potency relative to papaverine (times as potent),rabbit ileum,5
"c1ccc(N=C2CCCN2)cc1 [2-phenyliminopyrrolidine, reference compound]",diuretic activity (in words),[1]; Lipschitz method,substantially inactive as a diuretic agent
"Cl.c1ccc(CCN(C2=NCCCCC2)c2ccccc2)cc1 [Example 10, 3,4,5,6-Tetrahydro-7-[(N-phenyl)phenethylamino]-2H-azepine hydrochloride]",EC50,rabbit atrium; [6],7.2 µg/mL
"CC(C)(C)N=CN(Cc1ccccc1)c1ccccc1.Cl [Example 2, N-Benzyl-N'-tert.-butyl-N-phenylformamidine hydrochloride]","potency relative to papaverine (times as potent, ID50)",intestinal smooth muscle,about 1.5
"Cl.c1ccc(CCN(C2=NCCCCCCC2)c2ccccc2)cc1 [Example 61, 4,5,6,7,8,9-Hexahydro-2-(N-phenylphenethylamino)-3H-azonine Hydrochloride]",EC50,rabbit atrium; [6],1.9 µg/mL
